According to PubChem BioAssay AID248 (DTP/NCI, 2004):
Inconclusive results and toxic doses are left out.

System: L1210 leukemia ip in BDF1 mice, survival T/C
Assay: NCI In Vivo Anticancer Drug Screen. Data for tumor model L1210 Leukemia (intraperitoneal) in B6D2F1 (BDF1) mice
Conditions: endpoint: mean survival time, higher = longer survival
How it was run: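 Tumor cells were implanted, animals were treated, and survival was followed. The result divides the treated measurement by the vehicle-control measurement.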

[1] = dose: 100.0 mg/kg/injection, schedule: Q01DX009 (ip), vehicle: Klucel (hydroxypropylcellulose) (HPC)
[2] = dose: 200.0 mg/kg/injection, schedule: Q01DX009 (ip), vehicle: Klucel (hydroxypropylcellulose) (HPC)
[3] = dose: 400.0 mg/kg/injection, schedule: Q01DX009 (ip), vehicle: Klucel (hydroxypropylcellulose) (HPC)

With `Cc1cc(Cl)c2ccccc2c1N` the T/C (dose: 100.0 mg/kg/injection, schedule: Q01DX009 (ip), vehicle: saline with Tween-80) was 106 % of control, the T/C (dose: 100.0 mg/kg/injection, schedule: Q04DX003 (ip), vehicle: saline with Tween-80) was 104 % of control and the T/C (dose: 200.0 mg/kg/injection, schedule: Q01DX009 (ip), vehicle: saline with Tween-80) was 96 % of control. For the same compound, the T/C (dose: 200.0 mg/kg/injection, schedule: Q04DX003 (ip), vehicle: saline with Tween-80) was 102 % of control, the T/C (dose: 400.0 mg/kg/injection, schedule: Q01DX009 (ip), vehicle: saline with Tween-80) was 98 % of control and the T/C (dose: 400.0 mg/kg/injection, schedule: Q04DX003 (ip), vehicle: saline with Tween-80) was 100 % of control.
For `O=C(COc1ccc(Cl)cc1C(=O)O)Nc1cccc(NC(=O)Nc2ccc(S(=O)(=O)F)cc2)c1`, the T/C (dose: 100.0 mg/kg/injection, schedule: Q01DX001 (ip), vehicle: Klucel (hydroxypropylcellulose) (HPC)) was 91 % of control, the T/C (dose: 200.0 mg/kg/injection, schedule: Q01DX001 (ip), vehicle: Klucel (hydroxypropylcellulose) (HPC)) was 101 % of control and the T/C (dose: 400.0 mg/kg/injection, schedule: Q01DX001 (ip), vehicle: Klucel (hydroxypropylcellulose) (HPC)) was 93 % of control.
For `OB(O)CI`, the T/C (dose: 5.0 mg/kg/injection, schedule: Q01DX001 (ip), vehicle: saline) was 86 % of control, the T/C (dose: 10.0 mg/kg/injection, schedule: Q01DX001 (ip), vehicle: saline) was 95 % of control and the T/C (dose: 20.0 mg/kg/injection, schedule: Q01DX001 (ip), vehicle: saline) was 97 % of control.
For `N#CC(c1ccc(Cl)cc1)C(C/C(=N/Nc1ccc([N+](=O)[O-])cc1[N+](=O)[O-])c1ccccc1)c1ccccc1` (stereo unspecified), the T/C (dose: 25.0 mg/kg/injection, schedule: Q01DX001 (ip), vehicle: saline with Tween-80) was 91 % of control, the T/C (dose: 50.0 mg/kg/injection, schedule: Q01DX001 (ip), vehicle: saline with Tween-80) was 93 % of control and the T/C (dose: 100.0 mg/kg/injection, schedule: Q01DX001 (ip), vehicle: saline with Tween-80) was 95 % of control.
With `CCCCCCCCN(c1ccc(C#N)cc1)S(=O)(=O)c1ccc(C)cc1` the T/C (dose: 75.0 mg/kg/injection, schedule: Q01DX009 (ip), vehicle: Klucel (hydroxypropylcellulose) (HPC)) was 92 % of control, the T/C (dose: 150.0 mg/kg/injection, schedule: Q01DX009 (ip), vehicle: Klucel (hydroxypropylcellulose) (HPC)) was 87 % of control and the T/C (dose: 300.0 mg/kg/injection, schedule: Q01DX009 (ip), vehicle: Klucel (hydroxypropylcellulose) (HPC)) was 97 % of control.
For `O=[N+]([O-])c1cc2c(c([N+](=O)[O-])c1)Nc1cc(Cl)ccc1O2`, the T/C [1] was 95 % of control, the T/C [2] was 96 % of control and the T/C [3] was 96 % of control.
With `CN(N=O)C(=O)NCCCNC(=O)N(C)N=O` the T/C (dose: 6.25 mg/kg/injection, schedule: Q01DX Z (ip), vehicle: carboxymethylcellulose (CMC)) was 118 % of control, the T/C (dose: 12.5 mg/kg/injection, schedule: Q01DX Z (ip), vehicle: carboxymethylcellulose (CMC)) was 101 % of control and the T/C (dose: 25.0 mg/kg/injection, schedule: Q01DX Z (ip), vehicle: carboxymethylcellulose (CMC)) was 112 % of control. The T/C (dose: 100.0 mg/kg/injection, schedule: Q01DX Z (ip), vehicle: carboxymethylcellulose (CMC)) was 200 % of control, the T/C (dose: 150.0 mg/kg/injection, schedule: Q01DX001 (ip), vehicle: carboxymethylcellulose (CMC)) was 120 % of control and the T/C (dose: 150.0 mg/kg/injection, schedule: Q01DX001 (ip), vehicle: saline) was 102 % of control. The T/C (dose: 250.0 mg/kg/injection, schedule: Q01DX Z (ip), vehicle: carboxymethylcellulose (CMC)) was 121 % of control, the T/C (dose: 300.0 mg/kg/injection, schedule: Q01DX001 (ip), vehicle: carboxymethylcellulose (CMC)) was 123 % of control and the T/C (dose: 300.0 mg/kg/injection, schedule: Q01DX001 (ip), vehicle: saline) was 112 % of control. The T/C (dose: 300.0 mg/kg/injection, schedule: Q01DX Z (ip), vehicle: carboxymethylcellulose (CMC)) was 90 % of control and the T/C (dose: 600.0 mg/kg/injection, schedule: Q01DX001 (ip), vehicle: saline) was 109 % of control.
For `Nc1ccc2nc(NCCO)c3ccccc3c2c1`, the T/C [1] was 107 % of control, the T/C (dose: 100.0 mg/kg/injection, schedule: Q04DX003 (ip), vehicle: Klucel (hydroxypropylcellulose) (HPC)) was 104 % of control and the T/C [2] was 114 % of control. The T/C (dose: 200.0 mg/kg/injection, schedule: Q04DX003 (ip), vehicle: Klucel (hydroxypropylcellulose) (HPC)) was 104 % of control, the T/C [3] was 88 % of control and the T/C (dose: 400.0 mg/kg/injection, schedule: Q04DX003 (ip), vehicle: Klucel (hydroxypropylcellulose) (HPC)) was 104 % of control.
For `COc1cc2c(cc1OC)-c1cc3cc(OC)c(OC)cc3c(CCC(=O)O)[n+]1CC2` (tested in a mixture with another compound), the T/C (dose: 100.0 mg/kg/injection, schedule: Q04DX002 (ip), vehicle: saline) was 117 % of control, the T/C (dose: 200.0 mg/kg/injection, schedule: Q04DX002 (ip), vehicle: saline) was 103 % of control and the T/C (dose: 400.0 mg/kg/injection, schedule: Q04DX002 (ip), vehicle: saline) was 109 % of control.
In the case of `O=C(O)C(Br)CN1C(=O)c2ccccc2C1=O` (stereo unspecified), the T/C (dose: 50.0 mg/kg/injection, schedule: Q01DX009 (ip), vehicle: saline) is reported as 91 % of control, the T/C (dose: 100.0 mg/kg/injection, schedule: Q01DX009 (ip), vehicle: saline) is reported as 95 % of control and the T/C (dose: 200.0 mg/kg/injection, schedule: Q01DX009 (ip), vehicle: saline) is reported as 91 % of control.
In the case of `O=C(NCCN1CCCC1)NC1CCCCC1`, the T/C [1] is reported as 101 % of control and the T/C [2] is reported as 98 % of control.
